Assay results: patent publication US12209087B2, “AKT1 modulators” (Alterome Therapeutics, Inc., priority 2022, dated 2025)

Target: T1, full length AKT E17K (Homo sapiens, UniProt P31749, E17K)
T1 construct: host or cells: HEK-293 (ATCC CRL-1573)
Assay: NanoBRET Target Engagement (TE) Assay
Type: cell-based
Conditions: competitive displacement of tracer in cells, read-out: AKT1 E17K IC50
How it was run: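 Compound and tracer incubated 2 h before luminescence at donor 450 nm and acceptor 600 nm, with extracellular signal inhibited. EC50 by sigmoidal variable-slope regression.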

T1 sequence (P31749 whole entry E17K): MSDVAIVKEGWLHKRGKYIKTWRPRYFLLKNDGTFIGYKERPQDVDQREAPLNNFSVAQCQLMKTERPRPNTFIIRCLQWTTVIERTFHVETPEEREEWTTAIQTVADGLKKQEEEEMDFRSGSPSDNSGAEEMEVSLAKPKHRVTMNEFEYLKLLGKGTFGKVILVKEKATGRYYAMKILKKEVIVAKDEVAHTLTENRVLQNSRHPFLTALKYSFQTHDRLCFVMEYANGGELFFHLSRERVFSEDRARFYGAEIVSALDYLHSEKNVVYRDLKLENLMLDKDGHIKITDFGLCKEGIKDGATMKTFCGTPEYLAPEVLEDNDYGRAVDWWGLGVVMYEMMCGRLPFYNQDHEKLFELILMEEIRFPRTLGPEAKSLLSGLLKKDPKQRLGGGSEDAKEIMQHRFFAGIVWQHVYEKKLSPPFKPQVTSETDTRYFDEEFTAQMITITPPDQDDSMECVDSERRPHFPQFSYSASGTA

| SMILES | IC50 [nM] |
| --- | --- |
| CC(C)n1ncc(-c2ccc3nc(-c4nccnc4N)n(-c4ccc(CN5CCC(Nc6ccnc(C#N)n6)CC5)cc4)c3n2)n1 [Example 630, 4-((1-(4-(2-(3-Aminopyrazin-2-yl)-5-(2-isopropyl-2H-1,2,3-triazol-4-yl)-3H-imidazo[4,5-b]pyridin-3-yl)benzyl)piperidin-4-yl)amino)pyrimidine-2-carbonitrile] | < 15 |
| N#Cc1nccc(NC2CCN(Cc3ccc(-n4c(-c5nccnc5N)nc5ccc(-c6cnn(C7CC7)n6)nc54)cc3)CC2)n1 [Example 631, 4-((1-(4-(2-(3-Aminopyrazin-2-yl)-5-(2-cyclopropyl-2H-1,2,3-triazol-4-yl)-3H-imidazo[4,5-b]pyridin-3-yl)benzyl)piperidin-4-yl)amino)pyrimidine-2-carbonitrile] | < 15 |
| N#CCn1ncc(-c2ccc3nc(-c4nccnc4N)n(-c4ccc(CN5CCC(Nc6ccnc(C#N)n6)CC5)cc4)c3n2)n1 [Example 632, 4-((1-(4-(2-(3-Aminopyrazin-2-yl)-5-(2-(cyanomethyl)-2H-1,2,3-triazol-4-yl)-3H-imidazo[4,5-b]pyridin-3-yl)benzyl)piperidin-4-yl)amino)pyrimidine-2-carbonitrile] | < 15 |
| N#Cc1nccc(NC2CCN(Cc3ccc(-n4c(-c5nccnc5N)nc5ccc(-c6cnn(CC(N)=O)n6)nc54)cc3)CC2)n1 [Example 633, 2-(4-(2-(3-aminopyrazin-2-yl)-3-(4-((4-((2-cyanopyrimidin-4-yl)amino)piperidin-1-yl)methyl)phenyl)-3H-imidazo[4,5-b]pyridin-5-yl)-2H-1,2,3-triazol-2-yl)acetamide] | 15 to 60 |
| [2H]c1nn(C)nc1-c1ccc2nc(-c3nccnc3N)n(-c3ccc(CN4CCC(Nc5ccnc(C#N)n5)CC4)cc3)c2n1 [Example 634, 4-((1-(4-(2-(3-Aminopyrazin-2-yl)-5-(2-methyl-2H-1,2,3-triazol-4-yl-5-d)-3H-imidazo[4,5-b]pyridin-3-yl)benzyl)piperidin-4-yl)amino)pyrimidine-2-carbonitrile] | < 15 |
| Cc1nn(C)nc1-c1ccc2nc(-c3nccnc3N)n(-c3ccc(CN4CCC(Nc5ccnc(C#N)n5)CC4)cc3)c2n1 [Example 635, 4-((1-(4-(2-(3-Aminopyrazin-2-yl)-5-(2,5-dimethyl-2H-1,2,3-triazol-4-yl)-3H-imidazo[4,5-b]pyridin-3-yl)benzyl)piperidin-4-yl)amino)pyrimidine-2-carbonitrile] | 15 to 60 |
| COc1ccc(-c2ccc3nc(-c4nccnc4N)n(-c4ccc(CN5CCC(Nc6ccnc(C#N)n6)CC5)cc4)c3n2)cn1 [Example 636, 4-((1-(4-(2-(3-Aminopyrazin-2-yl)-5-(6-methoxypyridin-3-yl)-3H-imidazo[4,5-b]pyridin-3-yl)benzyl)piperidin-4-yl)amino)pyrimidine-2-carbonitrile] | < 15 |
| [2H]C([2H])([2H])Oc1ccc(-c2ccc3nc(-c4nccnc4N)n(-c4ccc(CN5CCC(Nc6ccnc(C#N)n6)CC5)cc4)c3n2)cn1 [Example 637, 4-((1-(4-(2-(3-aminopyrazin-2-yl)-5-(6-(methoxy-d3)pyridin-3-yl)-3H-imidazo[4,5-b]pyridin-3-yl)benzyl)piperidin-4-yl)amino)pyrimidine-2-carbonitrile] | < 15 |
| [2H]C([2H])([2H])Oc1ccc(-c2ccc3nc(-c4nccnc4N)n(-c4ccc(CN5CCC(Nc6ccnc(C#N)n6)CC5)cc4)c3n2)nc1 [Example 638, 4-((1-(4-(2-(3-Aminopyrazin-2-yl)-5-(5-(methoxy-d3)pyridin-2-yl)-3H-imidazo[4,5-b]pyridin-3-yl)benzyl)piperidin-4-yl)amino)pyrimidine-2-carbonitrile] | < 15 |
| N#Cc1nccc(NC2CCN(Cc3ccc(-n4c(-c5nccnc5N)nc5ccc(-c6ccc(OCF)nc6)nc54)cc3)CC2)n1 [Example 639, 4-((1-(4-(2-(3-Aminopyrazin-2-yl)-5-(6-(fluoromethoxy)pyridin-3-yl)-3H-imidazo[4,5-b]pyridin-3-yl)benzyl)piperidin-4-yl)amino)pyrimidine-2-carbonitrile] | < 15 |
| [2H]C([2H])(F)Oc1ccc(-c2ccc3nc(-c4nccnc4N)n(-c4ccc(CN5CCC(Nc6ccnc(C#N)n6)CC5)cc4)c3n2)cn1 [Example 640, 4-((1-(4-(2-(3-Aminopyrazin-2-yl)-5-(6-(fluoromethoxy-d2)pyridin-3-yl)-3H-imidazo[4,5-b]pyridin-3-yl)benzyl)piperidin-4-yl)amino)pyrimidine-2-carbonitrile] | < 15 |
| N#Cc1nccc(NC2CCN(Cc3ccc(-n4c(-c5cccnc5N)nc5ccc(-c6ccc(OC7CC7)nc6)nc54)cc3)CC2)n1 [Example 641, 4-((1-(4-(2-(2-Aminopyridin-3-yl)-5-(6-cyclopropoxypyridin-3-yl)-3H-imidazo[4,5-b]pyridin-3-yl)benzyl)piperidin-4-yl)amino)pyrimidine-2-carbonitrile] | < 15 |
| CC(C)Oc1ccc(-c2ccc3nc(-c4cccnc4N)n(-c4ccc(CN5CCC(Nc6ccnc(C#N)n6)CC5)cc4)c3n2)cn1 [Example 642, 4-((1-(4-(2-(2-Aminopyridin-3-yl)-5-(6-isopropoxypyridin-3-yl)-3H-imidazo[4,5-b]pyridin-3-yl)benzyl)piperidin-4-yl)amino)pyrimidine-2-carbonitrile] | < 15 |
| CC(C)c1ccc(-c2ccc3nc(-c4cccnc4N)n(-c4ccc(CN5CCC(Nc6ccnc(C#N)n6)CC5)cc4)c3n2)cn1 [Example 643, 4-((1-(4-(2-(2-Aminopyridin-3-yl)-5-(6-isopropylpyridin-3-yl)-3H-imidazo[4,5-b]pyridin-3-yl)benzyl)piperidin-4-yl)amino)pyrimidine-2-carbonitrile] | < 15 |
| N#Cc1nccc(NC2CCN(Cc3ccc(-n4c(-c5cccnc5N)nc5ccc(-c6ccc(C7CC7)cn6)nc54)cc3)CC2)n1 [Example 644, 4-((1-(4-(2-(2-Aminopyridin-3-yl)-5-(5-cyclopropylpyridin-2-yl)-3H-imidazo[4,5-b]pyridin-3-yl)benzyl)piperidin-4-yl)amino)pyrimidine-2-carbonitrile] | < 15 |
| N#Cc1nccc(NC2CCN(Cc3ccc(-n4c(-c5cccnc5N)nc5ccc(-c6ccc(C(F)F)nc6)nc54)cc3)CC2)n1 [Example 645, 4-((1-(4-(2-(2-Aminopyridin-3-yl)-5-(6-(difluoromethyl)pyridin-3-yl)-3H-imidazo[4,5-b]pyridin-3-yl)benzyl)piperidin-4-yl)amino)pyrimidine-2-carbonitrile] | < 15 |
| N#Cc1nccc(NC2CCN(Cc3ccc(-n4c(-c5cccnc5N)nc5ccc(-c6ccc(C(F)(F)F)nc6)nc54)cc3)CC2)n1 [Example 646, 4-((1-(4-(2-(2-Aminopyridin-3-yl)-5-(6-(trifluoromethyl)pyridin-3-yl)-3H-imidazo[4,5-b]pyridin-3-yl)benzyl)piperidin-4-yl)amino)pyrimidine-2-carbonitrile] | < 15 |
| CCc1ccc(-c2ccc3nc(-c4cccnc4N)n(-c4ccc(CN5CCC(Nc6ccnc(C#N)n6)CC5)cc4)c3n2)nc1 [Example 647, 4-((1-(4-(2-(2-Aminopyridin-3-yl)-5-(5-ethylpyridin-2-yl)-3H-imidazo[4,5-b]pyridin-3-yl)benzyl)piperidin-4-yl)amino)pyrimidine-2-carbonitrile] | < 15 |
| N#Cc1nccc(NC2CCN(Cc3ccc(-n4c(-c5cccnc5N)nc5ccc(-c6ccc(CF)cn6)nc54)cc3)CC2)n1 [Example 648, 4-((1-(4-(2-(2-Aminopyridin-3-yl)-5-(5-(fluoromethyl)pyridin-2-yl)-3H-imidazo[4,5-b]pyridin-3-yl)benzyl)piperidin-4-yl)amino)pyrimidine-2-carbonitrile] | < 15 |
| N#Cc1nccc(NC2CCN(Cc3ccc(-n4c(-c5cccnc5N)nc5ccc(-c6ccc(C(F)F)cn6)nc54)cc3)CC2)n1 [Example 649, 4-((1-(4-(2-(2-Aminopyridin-3-yl)-5-(5-(difluoromethyl)pyridin-2-yl)-3H-imidazo[4,5-b]pyridin-3-yl)benzyl)piperidin-4-yl)amino)pyrimidine-2-carbonitrile] | < 15 |
| N#Cc1nccc(NC2CCN(Cc3ccc(-n4c(-c5cccnc5N)nc5ccc(-c6ccc(C(F)(F)F)cn6)nc54)cc3)CC2)n1 [Example 650, 4-((1-(4-(2-(2-Aminopyridin-3-yl)-5-(5-(trifluoromethyl)pyridin-2-yl)-3H-imidazo[4,5-b]pyridin-3-yl)benzyl)piperidin-4-yl)amino)pyrimidine-2-carbonitrile] | 15 to 60 |
